The record followed here is ChEMBL document CHEMBL3868599, “Strategy for designing selective α-l-rhamnosidase inhibitors: Synthesis and biological evaluation of l-DMDP cyclic isothioureas” (Bioorg Med Chem, 2017).

The subject of experiment [1] is Penicillium decumbens. The experiment can be described thus: Inhibition of Penicillium decumbens alpha-L-rhamnosidase at 1000 uM using p-nitrophenyl-glycoside as substrate by spectrophotometric method.
For experiment [2], the system named is Coffea. The experiment can be described thus: Inhibition of coffee bean alpha-galactosidase at 1000 uM using p-nitrophenyl-glycoside as substrate by spectrophotometric method.
Experiment [3] can be described thus: Inhibition of bovine liver beta-glucosidase using p-nitrophenyl-glycoside as substrate by spectrophotometric method. Details: species or system Bos taurus.
For experiment [4], the system named is Aspergillus niger. The experiment can be described thus: Inhibition of Aspergillus niger amyloglucosidase assessed as D-glucose level at 1000 uM using maltose as substrate measured after 10 to 30 mins.
A short description of experiment [5]: Inhibition of human lysosomal beta-glucosidase using 4-methylumbelliferyl-beta-D-glucopyranoside as substrate preincubated for 45 mins followed by substrate addition measured after 30 mins by fluorescence spectrophotometric method.
For experiment [6], the system named is Prunus dulcis. The experiment is described as follows: Inhibition of almond beta-glucosidase at 1000 uM using p-nitrophenyl-glycoside as substrate by spectrophotometric method.
Experiment [7] concerns the target T1, Uncharacterized protein (Sus scrofa) (UniProt I3LIR5).
T1 sequence (whole entry): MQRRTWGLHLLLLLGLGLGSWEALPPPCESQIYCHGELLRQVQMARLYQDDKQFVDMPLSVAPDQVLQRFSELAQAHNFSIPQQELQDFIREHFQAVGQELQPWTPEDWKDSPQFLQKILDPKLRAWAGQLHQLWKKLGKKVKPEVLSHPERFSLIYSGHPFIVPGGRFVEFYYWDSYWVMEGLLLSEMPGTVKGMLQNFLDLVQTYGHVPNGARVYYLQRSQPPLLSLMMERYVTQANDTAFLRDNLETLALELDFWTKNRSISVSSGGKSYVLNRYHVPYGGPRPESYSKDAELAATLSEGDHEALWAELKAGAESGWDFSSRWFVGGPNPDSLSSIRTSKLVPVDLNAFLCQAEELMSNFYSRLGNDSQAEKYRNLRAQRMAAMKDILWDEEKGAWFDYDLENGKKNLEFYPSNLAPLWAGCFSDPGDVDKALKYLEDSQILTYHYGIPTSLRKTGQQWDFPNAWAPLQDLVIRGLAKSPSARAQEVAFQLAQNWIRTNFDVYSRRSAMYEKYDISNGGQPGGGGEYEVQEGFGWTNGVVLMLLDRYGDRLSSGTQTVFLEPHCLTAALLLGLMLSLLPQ
The experiment is described as follows: Inhibition of porcine kidney trehalase assessed as D-glucose level at 1000 uM using maltose as substrate measured after 10 to 30 mins.

The test system of experiment [8] is Escherichia coli. The experiment can be described thus: Inhibition of Escherichia coli beta-galactosidase at 1000 uM using p-nitrophenyl-glycoside as substrate by spectrophotometric method.
The test system of experiment [9] is Saccharomyces cerevisiae. The experiment is described as follows: Inhibition of yeast alpha-glucosidase at 1000 uM using p-nitrophenyl-glycoside as substrate by spectrophotometric method.
Experiment [10] addresses T2, Tissue alpha-L-fucosidase (Bos taurus) (UniProt Q2KIM0).
T2 sequence (whole entry): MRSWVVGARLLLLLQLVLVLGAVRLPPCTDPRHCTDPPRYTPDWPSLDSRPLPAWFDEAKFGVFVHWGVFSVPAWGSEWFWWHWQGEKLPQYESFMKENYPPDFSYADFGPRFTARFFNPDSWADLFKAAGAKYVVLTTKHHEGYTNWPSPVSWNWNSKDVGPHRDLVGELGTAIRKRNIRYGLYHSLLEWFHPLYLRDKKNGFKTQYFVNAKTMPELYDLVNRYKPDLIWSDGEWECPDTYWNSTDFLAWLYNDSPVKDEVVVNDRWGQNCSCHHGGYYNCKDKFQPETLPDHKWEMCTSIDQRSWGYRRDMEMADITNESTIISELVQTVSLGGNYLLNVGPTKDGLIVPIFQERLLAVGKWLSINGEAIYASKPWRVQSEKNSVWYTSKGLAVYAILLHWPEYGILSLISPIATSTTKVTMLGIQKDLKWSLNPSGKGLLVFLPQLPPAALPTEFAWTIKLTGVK
The experiment is described as follows: Inhibition of bovine kidney alpha-L-fucosidase at 1000 uM using p-nitrophenyl-glycoside as substrate by spectrophotometric method.

The species named for experiment [11] is Rattus norvegicus. The experiment can be described thus: Inhibition of rat intestinal maltase assessed as D-glucose level at 1000 uM using maltose as substrate measured after 10 to 30 mins.
Experiment [12] relates to Helix pomatia. The experiment can be described thus: Inhibition of Helix pomatia beta-mannosidase at 1000 uM using p-nitrophenyl-glycoside as substrate by spectrophotometric method.
Experiment [13] relates to Oryza sativa. The experiment can be described thus: Inhibition of rice alpha-glucosidase at 1000 uM using p-nitrophenyl-glycoside as substrate by spectrophotometric method.
For experiment [14], the system named is Escherichia coli. The experiment is described as follows: Inhibition of Escherichia coli beta-glucuronidase at 1000 uM using p-nitrophenyl-glycoside as substrate by spectrophotometric method.
In experiment [15] the target is T3, Beta-galactosidase (Bos taurus) (UniProt Q58D55).
T3 sequence (whole entry): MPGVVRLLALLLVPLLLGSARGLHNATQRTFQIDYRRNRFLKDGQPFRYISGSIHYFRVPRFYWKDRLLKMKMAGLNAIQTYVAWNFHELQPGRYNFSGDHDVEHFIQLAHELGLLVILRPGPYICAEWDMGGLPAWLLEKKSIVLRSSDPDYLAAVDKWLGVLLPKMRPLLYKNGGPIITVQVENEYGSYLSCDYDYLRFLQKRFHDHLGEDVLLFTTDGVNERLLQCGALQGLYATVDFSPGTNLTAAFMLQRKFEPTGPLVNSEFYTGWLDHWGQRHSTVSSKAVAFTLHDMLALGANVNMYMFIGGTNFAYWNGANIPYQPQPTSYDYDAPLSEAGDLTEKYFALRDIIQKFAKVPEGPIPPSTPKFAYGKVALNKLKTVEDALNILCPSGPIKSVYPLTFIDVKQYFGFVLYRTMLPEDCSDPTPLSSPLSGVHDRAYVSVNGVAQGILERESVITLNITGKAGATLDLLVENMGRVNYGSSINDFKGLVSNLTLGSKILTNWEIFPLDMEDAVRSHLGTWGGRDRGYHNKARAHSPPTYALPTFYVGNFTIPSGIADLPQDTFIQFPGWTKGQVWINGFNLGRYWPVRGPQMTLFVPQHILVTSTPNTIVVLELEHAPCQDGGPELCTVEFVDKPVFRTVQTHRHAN
The experiment is described as follows: Inhibition of bovine liver beta-galactosidase at 1000 uM using p-nitrophenyl-glycoside as substrate by spectrophotometric method.

Experiment [16] addresses T4, Alpha-mannosidase (Canavalia ensiformis) (UniProt C0HJB3).
T4 sequence (whole entry): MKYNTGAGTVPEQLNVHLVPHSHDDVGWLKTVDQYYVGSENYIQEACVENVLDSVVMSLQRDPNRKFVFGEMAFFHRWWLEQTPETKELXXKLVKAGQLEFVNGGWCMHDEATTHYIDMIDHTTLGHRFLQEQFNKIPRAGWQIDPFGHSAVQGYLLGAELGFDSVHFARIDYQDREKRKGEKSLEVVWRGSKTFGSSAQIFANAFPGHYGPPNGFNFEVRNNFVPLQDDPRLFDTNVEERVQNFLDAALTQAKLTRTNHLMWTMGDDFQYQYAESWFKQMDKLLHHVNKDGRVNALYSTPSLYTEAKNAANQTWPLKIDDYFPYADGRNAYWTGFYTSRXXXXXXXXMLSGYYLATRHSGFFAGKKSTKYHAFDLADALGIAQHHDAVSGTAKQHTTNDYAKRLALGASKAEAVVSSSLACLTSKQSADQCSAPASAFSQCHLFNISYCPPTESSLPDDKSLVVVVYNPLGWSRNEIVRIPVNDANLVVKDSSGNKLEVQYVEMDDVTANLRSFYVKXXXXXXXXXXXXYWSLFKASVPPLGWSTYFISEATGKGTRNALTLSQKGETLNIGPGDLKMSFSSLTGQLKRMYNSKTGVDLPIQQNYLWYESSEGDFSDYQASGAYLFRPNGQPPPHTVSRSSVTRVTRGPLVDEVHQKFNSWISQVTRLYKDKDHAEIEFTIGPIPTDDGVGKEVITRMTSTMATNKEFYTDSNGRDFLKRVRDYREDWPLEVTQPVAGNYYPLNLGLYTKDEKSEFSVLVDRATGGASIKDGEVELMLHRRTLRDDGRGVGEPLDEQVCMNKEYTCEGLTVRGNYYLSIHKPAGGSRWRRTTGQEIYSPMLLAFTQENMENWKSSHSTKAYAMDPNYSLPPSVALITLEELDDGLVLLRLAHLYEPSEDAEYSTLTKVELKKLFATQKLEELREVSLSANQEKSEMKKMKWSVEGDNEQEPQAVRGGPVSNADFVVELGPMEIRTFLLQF
The experiment is described as follows: Inhibition of Jack bean alpha-mannosidase at 1000 uM preincubated for 45 mins followed by addition of p-nitrophenyl-glycoside as substrate measured after 30 mins by fluorescence spectrophometry.

Experiment [17] can be described thus: Inhibition of Penicillium decumbens alpha-L-rhamnosidase assessed as reduction in hydrolysis of p-nitrophenyl-a-L-rhamnopyranoside.
Experiment [18] can be described thus: Inhibition of Penicillium decumbens alpha-L-rhamnosidase using p-nitrophenyl-glycoside as substrate by spectrophotometric method.
The species entered for experiment [19] is Homo sapiens. The experiment can be described thus: Inhibition of human lysosomal beta-glucosidase at 1000 uM using 4-methylumbelliferyl-beta-D-glucopyranoside as substrate preincubated for 45 mins followed by substrate addition measured after 30 mins by fluorescence spectrophotometric method.
For experiment [20], the species on record is Bos taurus. The experiment can be described thus: Inhibition of bovine liver beta-glucosidase at 1000 uM using p-nitrophenyl-glycoside as substrate by spectrophotometric method.
In experiment [21] the target is T5, Beta-galactosidase (Bos taurus, UniProt Q58D55).
T5 sequence (Q58D55 whole entry): T3 sequence (whole entry)
The experiment can be described thus: Inhibition of bovine liver beta-galactosidase using p-nitrophenyl-glycoside as substrate by spectrophotometric method.

The nature of experiment [22]: Inhibition of rice alpha-glucosidase using p-nitrophenyl-glycoside as substrate by spectrophotometric method. Details: species or system Oryza sativa.
Experiment [23] is described as follows: Inhibition of maltase in rat small intestinal brush border membranes assessed as D-glucose level using maltose as substrate measured after 10 to 30 mins.
Experiment [24] in a line: Competitive inhibition of Penicillium decumbens alpha-L-rhamnosidase using p-nitrophenyl-glycoside as substrate by Lineweaver-Burk plot analysis.
A short description of experiment [25]: Inhibition of Penicillium decumbens alpha-L-rhamnosidase.

On to `CCCCCCCC/N=C1/SC[C@@H]2[C@@H](O)[C@H](O)[C@@H](CO)N12`, for which the inhibition in experiment [1], in experiment [2], in experiment [4], in experiment [6], in experiment [7] and in [8] was below 50% in each case. Besides, the inhibition in experiment [9], in experiment [10], in [11], in experiment [12], in experiment [13] and in [14] was below 50% throughout. In addition, the inhibition in [15] and in experiment [16] was below 50% each time. The figures for the half-inhibitory concentration (IC50) in experiment [3] and in [5] were 63 µM and 2.4 µM, respectively.

`C[C@H](O)[C@H]1[C@@H](O)[C@@H](O)c2nnnn21`: the half-maximal inhibitory concentration (IC50) in experiment [17] was 70 µM.

`CCCCCCCC/N=C1/SC[C@H]2[C@H](O)[C@@H](O)[C@H](CO)N12`: the inhibition in experiment [2], in experiment [4], in experiment [6], in experiment [7], in experiment [8] and in experiment [19] was below 50% in each case. The inhibition in experiment [9], in [10], in experiment [20], in experiment [11], in [12] and in [13] was below 50% in each case. For the same compound, the inhibition in [14], in experiment [15] and in [16] was below 50% in each case. Besides, the IC50 in [18] was found to be 1.6 µM.

With `O[C@@H]1[C@@H]2[C@@H](O)CCCN2C[C@@H]1O`, the IC50 in experiment [17] is 0.3 µM.

As to `OC[C@@H]1N[C@@H](CO)[C@H](O)[C@H]1O`, the inhibition in experiment [1], in experiment [2], in experiment [4], in [6], in experiment [8] and in [19] was below 50% each time. Moreover, the inhibition in experiment [9], in [20], in [12] and in experiment [16] was below 50% each time.

With `CCCCNC(=S)N1[C@@H](CO)[C@H](O)[C@@H](O)[C@@H]1CO`, the inhibition in experiment [1], in experiment [4], in experiment [6], in experiment [7], in experiment [19] and in experiment [10] was below 50% each time. The same compound gave an inhibition in [14] below 50%. The IC50 in experiment [21] was determined as 473 µM; in [3], 939 µM; in [22], 741 µM; in experiment [23], 1000 µM.

As to `C[C@H]1NC[C@H](O)[C@H](O)[C@H]1O`, the concentration for half-maximal inhibition (IC50) came to 10 µM in [18] and 5 µM in experiment [25]. In [24], this compound gave a Ki of 4.2 µM.

Take `CCCCCCCCNC(=S)N1[C@@H](CO)[C@H](O)[C@@H](O)[C@@H]1CO`: the inhibition in [1], in experiment [4], in [6], in [7], in [19] and in [10] was below 50% in each case. In experiment [14], this compound yielded an inhibition below 50%. The IC50 in [21] is 266 µM; in experiment [3] it was 178 µM; in [22] it was 1000 µM; in experiment [23], 1000 µM.

Regarding `C[C@H](O)[C@@H]1NC[C@H](O)[C@@H]1O`, the IC50 in experiment [17] came to 4 µM.

`CCCCCC/N=C1/SC[C@H]2[C@H](O)[C@@H](O)[C@H](CO)N12`: the 50% inhibitory concentration (IC50) was 599 µM in experiment [21], 5.3 µM in experiment [18], 418 µM in [22] and 799 µM in experiment [23]. Moreover, the inhibition in experiment [4], in experiment [6], in experiment [7], in [19], in experiment [10] and in [20] was below 50% each time. The inhibition in experiment [14] was below 50%.
